In patent publication US11225469B2, “Inhibitors of phosphoglycerate dehydrogenase (PHGDH) and uses thereof” (Whitehead Institute for Biomedical Research, priority 2015, dated 2022):

Target: PHGDH (Homo sapiens (Human), UniProt O43175)
Test: PHGDH inhibition, coupled assay with PSAT1/PSPH and diaphorase/resazurin readout
Format: biochemical
Conditions: Table E9; mixture with PSAT1, PSPH; diaphorase/resazurin reporter
Method: Compounds of the invention were assayed for inhibition of the activity phosphoglycerate dehydrogenase (PHGDH). The compounds were assayed in a mixture comprising PHGDH, PSAT1, PSPH, NADH, and glutamate. Diaphorase and resazurin were used as a fluorescent reporter system.
In this endogenous pathway coupled assay, the production of NADH by PHGDH was measured through the diaphorasemediated reduction of resazurin (See, e.g., Chakraborty, S., Sakka, M., Kimura, T. & Sakka, K. “Characterization of a dihydrolipoyl dehydrogenase having diaphorase activity of Clostridium kluyveri.” BioscL Biotechnol. Biochem. 72, 982-988 (2008)).
PHGDH assay buffer contained 50 mM TEA pH 8.0, 10 mM MgCl2, 0.05% BSA, and 0.01% Tween-20. PHGDH enzyme buffer consisted of assay buffer with 20 nM PHGDH and 0.2 mg/mL diaphorase. PHGDH substrate buffer contained 0.3 mM NAD 1.25 mM glutamate, 0.1 mM 3-phosphoglycerate, 0.2 mM resazurin, 1 μM PSAT1, and 1 μM PSPH. qHTS was performed in 1536-well plates dispensed with a BioRAPTR FRD. Each well contained equal volumes of substrate buffer and assay buffer. Plates were read at 0 minutes and 20 minutes at room temperature with a ViewLux uHTS Microplate Imager (PerkinElmer). Follow-up assays were performed in black 384-well plates (Greiner) in 20 μL of enzyme buffer to which compounds were added in dose-response with an HP D300 digital dispenser (Hewlett-Packard), followed by addition of 20 μL of substrate buffer. Plates were incubated at room temperature (25° C.) and read at 0 and 20 minutes with a Spectramax M5 plate reader (Molecular Devices) in fluorescence intensity mode with a λex=550 nm and λem=600 nm (emission cutoff=590 nm).

PHGDH, sequence (O43175 whole entry): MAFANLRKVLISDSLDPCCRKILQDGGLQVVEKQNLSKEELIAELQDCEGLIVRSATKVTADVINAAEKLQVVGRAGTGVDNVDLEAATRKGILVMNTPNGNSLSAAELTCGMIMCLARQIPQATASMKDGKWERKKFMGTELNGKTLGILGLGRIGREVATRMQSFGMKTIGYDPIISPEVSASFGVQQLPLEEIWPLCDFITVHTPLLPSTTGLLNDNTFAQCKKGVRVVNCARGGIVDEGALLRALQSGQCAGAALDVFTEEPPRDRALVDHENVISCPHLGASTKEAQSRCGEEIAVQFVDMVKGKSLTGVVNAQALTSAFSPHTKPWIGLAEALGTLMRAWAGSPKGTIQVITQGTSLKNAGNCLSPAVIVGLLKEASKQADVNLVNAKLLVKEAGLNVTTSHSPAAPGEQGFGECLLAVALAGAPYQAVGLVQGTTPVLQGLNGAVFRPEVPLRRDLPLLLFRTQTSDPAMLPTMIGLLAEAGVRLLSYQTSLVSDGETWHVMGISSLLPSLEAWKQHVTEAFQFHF

Row | IC50 | SMILES
1 | ≥ 20 µM | Cc1cc(C)nc(NC(=S)N2CCC(CN3CCCCC3)CC2)c1 [Compound 271]
2 | ≥ 20 µM | Cc1cc(C)nc(Nc2nnc(N3CCN(c4cccc(C(F)(F)F)c4)CC3)s2)c1 [Compound 125]
3 | 10 to 20 µM | Cc1ccnc(NC(=S)N2CCc3cccc(C(F)(F)F)c3C2)c1 [Compound 59]
4 | ≥ 20 µM | Cc1cc(C)nc(NC(=S)N2CCN(c3cncs3)CC2)c1 [Compound 157]
5 | ≥ 20 µM | Cc1cc(C)nc(NC(=S)N2CCN(Cc3ccccn3)CC2)c1 [Compound 287, N-(4,6-dimethylpyridin-2-yl)-4-(pyridin-2-ylmethyl)piperazine-1-carbothioamide]
6 | ≥ 20 µM | COc1ccc2nc(NC(=S)N3CCN(c4cccc(C(F)(F)F)c4)CC3)[nH]c2c1 [Compound 240]
7 | ≥ 20 µM | CSC(Cc1ccc(Cl)cc1)C(=O)Nc1ccc(Cl)cc1C(=O)O (stereo not drawn) [Compound 19]
8 | 5 to 10 µM | COc1ccnc(NC(=S)N2CCN(c3cccc(Cl)c3Cl)CC2)c1 [Compound 180]
9 | ≥ 20 µM | COc1ccccc1N[S+](=O)([O-])c1cc(NC(=O)c2ccc3ccccc3n2)ccc1N1CCCC1 [Compound 249]
10 | < 5 µM | Cc1ccc2nc(NC(=S)N3CCN(c4cccc(C(F)(F)F)c4)CC3)[nH]c2c1 [Compound 242]
11 | ≥ 20 µM | Cc1cc(C)nc(NC(=S)N2CCC(CN3CCOCC3)CC2)c1 [Compound 270]
12 | ≥ 20 µM | Cc1ccnc(NC(=S)N2CCN(c3cccc([N+](=O)[O-])c3)CC2)c1 [Compound 5]
13 | 10 to 20 µM | Cc1cc(C)nc(NC(=S)N2CCN(c3nc4ccccc4o3)CC2)c1 [Compound 105]
14 | ≥ 20 µM | OCc1ccnc(NC(=S)N2CCN(c3cccc(C(F)(F)F)c3)CC2)c1 [Compound 27]
15 | 10 to 20 µM | Cc1cc(C)nc(NC(=S)N2CCN(Cc3ccc(Br)cc3)CC2)c1 [Compound 281]
16 | 10 to 20 µM | Cc1cc(C)nc(NC(=S)N2CCN(c3ccccc3C#N)CC2)c1 [Compound 89]
17 | 10 to 20 µM | Cc1cc(C)nc(NC(=S)N2CCN(Cc3cccc(Cl)c3)CC2)c1 [Compound 284]
18 | ≥ 20 µM | COc1cccc(NC(=S)N2CCN(c3ccc4ccccc4n3)CC2)n1 [Compound 196]
19 | < 5 µM | Cc1ccnc(NC(=S)N2CCN(c3cc(F)cc(Cl)c3)CC2)c1 [Compound 141]
20 | 10 to 20 µM | Cc1cc(C)nc(NC(=S)N2CCN(c3ccc4ncccc4c3[N+](=O)[O-])CC2)c1 [Compound 124]
21 | 5 to 10 µM | COc1ccnc(NC(=S)N2CCN(c3ccccc3C(F)(F)F)CC2)c1 [Compound 183]
22 | 5 to 10 µM | FC(F)(F)c1cccc(N2CCN(C(=S)Nc3cc[nH]n3)CC2)c1 [Compound 236]

Row | IC50 | SMILES
23 | ≥ 20 µM | Cc1cc(C)nc(NC(=S)N2CCN(c3cc(C#N)cc(C#N)c3)CC2)c1 [Compound 205]
24 | ≥ 20 µM | Cc1cc(C)nc(NC(=C(C#N)C#N)N2CCN(c3cccc(C(F)(F)F)c3)CC2)c1 [Compound 96]
25 | 10 to 20 µM | COc1ccnc(NC(=S)N2CCN(c3ccc(Cl)cc3Cl)CC2)c1 [Compound 181]
26 | 10 to 20 µM | Cc1cc(C)nc(NC(=S)N2CCN(c3nc4ccccc4s3)CC2)c1 [Compound 106]
27 | ≥ 20 µM | COc1cccc(NC(=S)N2CCN(c3cc(Cl)cc(Cl)c3)CC2)n1 [Compound 187]
28 | 5 to 10 µM | FC(F)(F)c1ccc(N2CCN(C(=S)Nc3ccccn3)CC2)cc1 [Compound 25]
29 | ≥ 20 µM | Cc1ccnc(NC(=S)N2CC3CN(c4ccc(Cl)cc4C(F)(F)F)CC3C2)c1 (stereo not drawn) [Compound 224]
30 | 10 to 20 µM | Cc1cc(C)nc(NC(=S)N2CCN(c3ccc4ccccc4n3)CC2)c1 [Compound 85]
31 | 10 to 20 µM | Cc1cc(C)nc(NC(=S)N2CC3CN(c4ncc(C(F)(F)F)cc4Cl)CC3C2)c1 (stereo not drawn) [Compound 225]
32 | 10 to 20 µM | Cc1cc(C)nc(NC(=S)N2CCN(c3cncc4ccccc34)CC2)c1 [Compound 146]
33 | ≥ 20 µM | Nc1nc(NC(=S)N2CCN(c3cccc(C(F)(F)F)c3)CC2)n[nH]1 [Compound 231]
34 | < 5 µM | Cc1cc(C)nc(NC(=S)N2CCC(Nc3ccc(C(F)(F)F)cc3)CC2)c1 [Compound 258]
35 | < 5 µM | Cc1cc(C)nc(NC(=S)N2CCC(NC(=O)c3ccc(C(F)(F)F)cc3)CC2)c1 [Compound 266]
36 | 10 to 20 µM | Cc1cc(C)nc(NC(=S)N2CCN(c3cccc4[nH]ccc34)CC2)c1 [Compound 155]
37 | ≥ 20 µM | Cc1cc(C)nc(N/C(=N/C#N)N2CCN(c3cccc(C(F)(F)F)c3)CC2)c1 [Compound 95]
38 | 10 to 20 µM | Cc1cc(C)nc(NC(=S)N2CCN(Cc3ccc(C(F)(F)F)cc3)C(c3ccccc3)C2)c1 (stereo not drawn) [Compound 273]
39 | ≥ 20 µM | Cc1cc2nc(NC(=S)N3CCN(c4cccc(C(F)(F)F)c4)CC3)[nH]c2cc1C [Compound 241]
40 | 10 to 20 µM | Cc1cc(C)nc(NC(=S)N2CCN(c3ccc([N+](=O)[O-])cc3Cl)CC2)c1 [Compound 217]
41 | < 5 µM | COC(=O)c1ccnc(NC(=S)N2CCN(c3cccc(C(F)(F)F)c3)CC2)c1 [Compound 28]
42 | ≥ 20 µM | Cc1cc(C)nc(NC(=S)N2CCN(c3nccs3)CC2)c1 [Compound 87]
43 | 5 to 10 µM | Cc1ccnc(NC(=S)N2CCN(c3ccc(Cl)cc3Cl)CC2)c1 [Compound 172]
44 | 5 to 10 µM | FC(F)(F)c1cccc(N2CCN(C(=S)Nc3cc(C(F)(F)F)ccn3)CC2)c1 [Compound 26]

Row | IC50 | SMILES
45 | 10 to 20 µM | Cc1ccnc(NC(=S)N2CCN(c3ccc4ccccc4n3)CC2)c1 [Compound 177]
46 | 5 to 10 µM | Cc1cc(C)nc(NC(=S)N2CCN(c3ccc4ccccc4c3)CC2)c1 [Compound 70]
47 | 10 to 20 µM | S=C(Nc1cc(Cl)ccn1)N1CCN(c2cccc(Cl)c2Cl)CC1 [Compound 226]
48 | < 5 µM | Cc1ccc(CN2CCN(C(=S)Nc3cc(C)cc(C)n3)CC2)cc1 [Compound 292]
49 | 5 to 10 µM | Cc1cc(C)nc(NC(=S)N2CCN(c3ccc(Cl)cc3F)CC2)c1 [Compound 219]
50 | 10 to 20 µM | Cc1cc(C)nc(NC(=S)N2CCN(Cc3ccccc3Cl)CC2)c1 [Compound 289]
51 | 5 to 10 µM | COc1ccnc(NC(=S)N2CCN(c3cccc(C(F)(F)F)n3)CC2)c1 [Compound 184]
52 | ≥ 20 µM | Cc1cc(C)nc(NC(=S)N2CCC(C(=O)N3CCOCC3)CC2)c1 [Compound 257]
53 | ≥ 20 µM | Cc1ccnc(NC(=S)N2CCCc3ccc(C(F)(F)F)cc32)c1 [Compound 60]
54 | 10 to 20 µM | COc1cc(NC(=S)N2CCN(c3cccc(C(F)(F)F)c3)CC2)nc2ccccc12 [Compound 130]
55 | 5 to 10 µM | Cn1c(NC(=S)N2CCN(c3cccc(C(F)(F)F)c3)CC2)nc2ccccc21 [Compound 229]
56 | 10 to 20 µM | Cc1ccnc(NC(=S)N2CCN(c3cccc(C(F)(F)F)c3)CC2)n1 [Compound 126]
57 | ≥ 20 µM | Cc1cc(C)nc(NC(=S)N2CCN(CCN3CCCCC3)CC2)c1 [Compound 256]
58 | < 5 µM | Cc1cc(C)nc(NC(=S)N2CCCC(Nc3ccc(C(F)(F)F)cc3)C2)c1 (stereo not drawn) [Compound 252]
59 | 10 to 20 µM | Cc1cc(C)nc(NC(=S)N2CCN(c3cc(Cl)cc(C(F)(F)F)c3)CC2)c1 [Compound 137]
60 | ≥ 20 µM | Cc1ccnc(NC(=S)N2CCNCC2)c1 [Compound 53]
61 | ≥ 20 µM | Cc1ccnc(N(C)C(=S)N2CCN(c3cccc(C(F)(F)F)c3)CC2)c1 [Compound 52]
62 | < 5 µM | Cc1cc(C)nc(NC(=S)N2CCN(Cc3cccc(OC(F)(F)F)c3)CC2)c1 [Compound 299]
63 | < 5 µM | Cc1cc(C)nc(NC(=S)N2CCC(Nc3cccc(C(F)(F)F)c3)CC2)c1 [Compound 250]
64 | < 5 µM | Cc1cc(C)nc(NC(=S)N2CCC(NC(=O)c3cccc(C(F)(F)F)c3)CC2)c1 [Compound 263]
65 | ≥ 20 µM | Cc1cc(C)nc(NC(=S)N2CCN(c3cc(Cl)cc(Cl)n3)CC2)c1 [Compound 207]
66 | 5 to 10 µM | Cc1cc(C)nc(NC(=S)N2CCN(c3ncc(Cl)cc3Cl)CC2)c1 [Compound 81]

Row | IC50 | SMILES
67 | 5 to 10 µM | FC(F)(F)c1cccc(N2CCN(C(=S)Nc3ncnc4ccccc34)CC2)c1 [Compound 143]
68 | ≥ 20 µM | Cc1cc(C)nc(NC(=S)N2CCN(c3ccc([S+](C)(=O)[O-])cc3F)CC2)c1 [Compound 109]
69 | ≥ 20 µM | Cc1cc(C)nc(NC(=S)N2CCN(c3cccc([S+](C)(=O)[O-])c3)CC2)c1 [Compound 140]
70 | 5 to 10 µM | Cc1cc(C)nc(NC(=S)N2CCN(c3ccc(Cl)cc3Cl)CC2)c1 [Compound 68]
71 | 5 to 10 µM | Cc1cc(C)nc(NC(=S)N2CCN(c3cccc(C(F)(F)F)c3)CC2)c1 [Compound 24]
72 | < 5 µM | COc1ccc2nc(NC(=S)N3CCN(c4cccc(C(F)(F)F)c4)CC3)[nH]c2c1 [Compound 243]
73 | 10 to 20 µM | Cc1cc(C)nc(NC(=S)N2CCN(Cc3ccccc3F)CC2)c1 [Compound 288]
74 | 5 to 10 µM | COc1cccc(NC(=S)N2CCN(c3cccc(C(F)(F)F)c3)CC2)n1 [Compound 38]
75 | 5 to 10 µM | Cc1ccnc(NC(=S)N2CCN(c3ccc(C(F)(F)F)cc3)CC2)c1 [Compound 4]
76 | ≥ 20 µM | Cc1ccnc(NC(=S)N2CCN(c3ccc(F)cc3)CC2)c1 [Compound 7]
77 | ≥ 20 µM | Cc1cc(C)nc(NC(=S)N2CCN(c3ccc4c(c3)OCO4)CC2)c1 [Compound 167]
78 | 10 to 20 µM | Cc1cc(C)nc(NC(=S)N2CCN(c3nnc(C(F)(F)F)s3)CC2)c1 [Compound 107]
79 | 10 to 20 µM | COc1cccc(NC(=S)N2CCN(c3ccc(C(F)(F)F)cc3[N+](=O)[O-])CC2)n1 [Compound 192]
80 | 10 to 20 µM | COc1cc(OC)cc(N2CCN(C(=S)Nc3cc(C)cc(C)n3)CC2)c1 [Compound 216]
81 | 5 to 10 µM | COc1ccnc(NC(=S)N2CCN(c3ncc(C(F)(F)F)cc3Cl)CC2)c1 [Compound 185]
82 | ≥ 20 µM | CCOC(=O)N1CCN(C(=S)Nc2cc(C)cc(C)n2)CC1 [Compound 259]
83 | 10 to 20 µM | Cc1cc(C)nc(NC(=S)N2CCN(Cc3cccc(Br)c3)CC2)c1 [Compound 282]
84 | 10 to 20 µM | Cc1cc(C)nc(NC(=S)N2CCN(c3cccc(C#N)c3)CC2)c1 [Compound 66]
85 | 10 to 20 µM | Cc1cc(C)nc(NC(=S)N2CCN(Cc3ccccc3)CC2)c1 [Compound 274]
86 | ≥ 20 µM | Cc1cc(C)nc(NC(=S)N2CCN(c3cc4ccccc4cn3)CC2)c1 [Compound 145]
87 | ≥ 20 µM | Cc1cc(C)nc(NC(=S)N2CCN(c3ncccc3C#N)CC2)c1 [Compound 121]
